In ChEMBL document CHEMBL4265934 (Eur J Med Chem, 2018):
Active and inactive are the calls of the source. The calls are words filed in the database; no cut-off is given here.

How the values were obtained:
[1] = target: T1, Phosphatidylinositol 4,5-bisphosphate 3-kinase catalytic subunit delta isoform (Homo sapiens) (UniProt O00329); assay: Inhibition of PI3Kdelta in human basophils assessed as reduction in IgE-induced degranulation by measuring CD203c expression level at 100 uM by fluorescence assay relative to control; parameters: scale not given: the % may be the effect or the level left
T1 sequence (whole entry): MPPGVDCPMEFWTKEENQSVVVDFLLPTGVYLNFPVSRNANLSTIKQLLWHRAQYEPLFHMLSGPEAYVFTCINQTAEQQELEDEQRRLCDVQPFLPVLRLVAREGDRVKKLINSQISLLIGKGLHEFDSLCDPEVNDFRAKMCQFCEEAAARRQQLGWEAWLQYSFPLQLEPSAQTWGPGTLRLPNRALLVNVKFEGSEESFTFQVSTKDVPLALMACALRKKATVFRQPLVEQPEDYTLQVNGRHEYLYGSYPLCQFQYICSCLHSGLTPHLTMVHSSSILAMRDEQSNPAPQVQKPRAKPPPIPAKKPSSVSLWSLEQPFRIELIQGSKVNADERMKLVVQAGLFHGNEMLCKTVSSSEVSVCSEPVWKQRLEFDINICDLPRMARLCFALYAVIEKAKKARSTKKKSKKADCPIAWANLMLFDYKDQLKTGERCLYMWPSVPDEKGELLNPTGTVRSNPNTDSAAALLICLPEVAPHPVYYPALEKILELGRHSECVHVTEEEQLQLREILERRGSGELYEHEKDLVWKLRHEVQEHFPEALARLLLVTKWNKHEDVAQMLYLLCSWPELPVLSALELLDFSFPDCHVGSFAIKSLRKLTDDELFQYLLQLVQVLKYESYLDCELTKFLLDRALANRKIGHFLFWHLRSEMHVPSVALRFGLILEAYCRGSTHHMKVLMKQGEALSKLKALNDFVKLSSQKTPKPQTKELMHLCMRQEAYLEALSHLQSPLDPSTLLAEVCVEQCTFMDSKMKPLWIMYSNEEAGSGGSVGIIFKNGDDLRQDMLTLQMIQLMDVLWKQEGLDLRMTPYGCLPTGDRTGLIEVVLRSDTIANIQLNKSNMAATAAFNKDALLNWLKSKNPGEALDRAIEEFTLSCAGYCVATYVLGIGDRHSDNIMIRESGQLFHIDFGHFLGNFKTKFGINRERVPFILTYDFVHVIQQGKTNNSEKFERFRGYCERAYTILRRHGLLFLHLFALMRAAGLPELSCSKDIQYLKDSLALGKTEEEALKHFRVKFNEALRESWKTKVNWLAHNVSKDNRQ

[2] = target: T1, Phosphatidylinositol 4,5-bisphosphate 3-kinase catalytic subunit delta isoform (Homo sapiens); assay: Inhibition of PI3Kdelta in human basophils assessed as reduction in IgE-induced degranulation by measuring CD63 expression level at 100 uM by flow cast assay relative to control; parameters: scale not given: the % may be the effect or the level left
Mus musculus [3] = assay: Protection against DNFB-induced atopic dermatitis in mouse assessed as reduction in ear thickness administered topically measured up to 4 days post DNFB treatment; format: functional, organism-based
Mus musculus [4] = assay: Anti-inflammatory activity in mouse model of ovalbumin-induced asthma assessed as decrease in neutrophilic infilteration at 90 mg/kg aerosolized daily; format: functional, organism-based
Mus musculus [5] = assay: Anti-asthmatic activity in mouse model of ovalbumin-induced asthma assessed as decrease in methacholine-induced lung resistance at 90 mg/kg, ip daily by plethysmographic method; format: functional, organism-based
Mus musculus [6] = assay: Anti-inflammatory activity in mouse model of ovalbumin-induced asthma assessed as decrease in eosinophilic infilteration administered ip daily; format: functional, organism-based
[7] = target: T1, Phosphatidylinositol 4,5-bisphosphate 3-kinase catalytic subunit delta isoform (Homo sapiens); assay: Inhibition of PI3Kdelta in human basophils assessed as reduction in IgE-induced degranulation by decrease in measuring CD203c expression level by fluorescence assay
Mus musculus [8] = assay: Anti-inflammatory activity in mouse model of ovalbumin-induced asthma assessed as decrease in total leukocytic infilterate in BAL at 90 mg/kg aerosolized daily; format: functional, organism-based
Mus musculus [9] = assay: Anti-inflammatory activity in mouse model of ovalbumin-induced asthma assessed as decrease in macrophage infilteration at 90 mg/kg aerosolized daily; format: functional, organism-based
Mus musculus [10] = assay: Anti-inflammatory activity in mouse model of ovalbumin-induced asthma assessed as decrease in total leukocytic infilterate in lungs administered ip daily; format: functional, organism-based
Mus musculus [11] = assay: Protection against DNFB-induced atopic dermatitis in mouse assessed as reduction in ear thickness at 90 mg/kg, ip measured up to 3 days post DNFB treatment; format: functional, organism-based
[12] = target: Phosphatidylinositol 4,5-bisphosphate 3-kinase catalytic subunit gamma isoform (Homo sapiens, UniProt P48736); assay: Inhibition of PI3KCgamma (unknown origin)
Sequence of Phosphatidylinositol 4,5-bisphosphate 3-kinase catalytic subunit gamma isoform (P48736 whole entry, canonical isoform): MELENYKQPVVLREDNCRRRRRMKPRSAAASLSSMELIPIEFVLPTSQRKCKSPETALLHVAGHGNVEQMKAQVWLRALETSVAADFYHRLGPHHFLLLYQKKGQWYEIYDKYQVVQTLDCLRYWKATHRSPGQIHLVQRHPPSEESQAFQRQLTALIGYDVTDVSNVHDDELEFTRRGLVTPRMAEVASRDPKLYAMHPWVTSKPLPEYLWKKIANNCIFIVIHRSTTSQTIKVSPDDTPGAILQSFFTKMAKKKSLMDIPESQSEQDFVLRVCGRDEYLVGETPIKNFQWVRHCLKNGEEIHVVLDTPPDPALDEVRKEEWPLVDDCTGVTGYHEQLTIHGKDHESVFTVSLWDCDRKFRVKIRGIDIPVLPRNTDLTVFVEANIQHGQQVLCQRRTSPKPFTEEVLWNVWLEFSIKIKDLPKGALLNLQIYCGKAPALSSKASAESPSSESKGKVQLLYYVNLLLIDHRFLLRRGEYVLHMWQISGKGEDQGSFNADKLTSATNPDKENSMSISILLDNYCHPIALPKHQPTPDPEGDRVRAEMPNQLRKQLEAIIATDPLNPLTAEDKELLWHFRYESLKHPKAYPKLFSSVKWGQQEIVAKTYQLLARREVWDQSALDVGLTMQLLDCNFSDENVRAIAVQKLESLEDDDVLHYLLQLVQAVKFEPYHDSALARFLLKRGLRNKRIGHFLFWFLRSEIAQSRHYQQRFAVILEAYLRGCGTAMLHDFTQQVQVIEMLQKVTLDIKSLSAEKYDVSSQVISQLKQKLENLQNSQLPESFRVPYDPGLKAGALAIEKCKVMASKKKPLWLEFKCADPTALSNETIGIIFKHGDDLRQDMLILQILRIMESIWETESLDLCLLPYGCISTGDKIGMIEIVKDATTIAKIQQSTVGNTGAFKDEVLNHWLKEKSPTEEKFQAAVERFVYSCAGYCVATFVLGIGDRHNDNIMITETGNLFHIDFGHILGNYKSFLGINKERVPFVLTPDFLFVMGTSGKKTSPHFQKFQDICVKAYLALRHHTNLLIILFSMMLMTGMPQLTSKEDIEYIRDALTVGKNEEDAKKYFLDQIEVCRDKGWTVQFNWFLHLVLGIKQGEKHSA

Mus musculus [13] = assay: Anti-inflammatory activity in mouse model of ovalbumin-induced asthma assessed as decrease in eosinophilic infilteration at 90 mg/kg aerosolized daily; format: functional, organism-based
Mus musculus [14] = assay: Anti-inflammatory activity in mouse model of ovalbumin-induced asthma assessed as decrease in total leukocytic infilterate in BAL administered ip daily; format: functional, organism-based
[15] = target: PI3-kinase p110-alpha/p85-alpha (Homo sapiens, UniProt P42336); assay: Inhibition of PI3KCalpha/PIK3R1 (unknown origin); format: protein-complex assay
Sequence of PI3-kinase p110-alpha/p85-alpha (P27986 whole entry): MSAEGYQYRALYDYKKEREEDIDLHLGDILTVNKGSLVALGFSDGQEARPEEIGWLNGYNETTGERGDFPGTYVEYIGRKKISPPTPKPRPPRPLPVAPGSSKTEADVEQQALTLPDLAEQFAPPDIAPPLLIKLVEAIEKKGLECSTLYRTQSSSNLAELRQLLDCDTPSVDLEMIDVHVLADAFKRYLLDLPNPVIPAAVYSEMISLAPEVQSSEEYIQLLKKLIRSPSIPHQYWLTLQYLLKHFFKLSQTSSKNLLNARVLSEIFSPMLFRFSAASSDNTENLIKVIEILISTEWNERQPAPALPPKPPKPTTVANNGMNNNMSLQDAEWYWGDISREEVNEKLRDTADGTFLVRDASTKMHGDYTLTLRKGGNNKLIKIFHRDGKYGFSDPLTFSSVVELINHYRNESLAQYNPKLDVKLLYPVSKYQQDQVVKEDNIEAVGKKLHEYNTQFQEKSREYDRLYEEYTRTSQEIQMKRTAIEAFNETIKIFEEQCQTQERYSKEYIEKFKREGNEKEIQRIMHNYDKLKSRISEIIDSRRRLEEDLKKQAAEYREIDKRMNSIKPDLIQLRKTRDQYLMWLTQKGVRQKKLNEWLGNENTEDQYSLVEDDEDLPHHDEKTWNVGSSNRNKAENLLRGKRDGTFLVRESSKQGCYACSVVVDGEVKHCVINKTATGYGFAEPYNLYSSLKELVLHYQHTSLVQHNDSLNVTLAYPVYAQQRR
Sequence of PI3-kinase p110-alpha/p85-alpha (P42336 whole entry): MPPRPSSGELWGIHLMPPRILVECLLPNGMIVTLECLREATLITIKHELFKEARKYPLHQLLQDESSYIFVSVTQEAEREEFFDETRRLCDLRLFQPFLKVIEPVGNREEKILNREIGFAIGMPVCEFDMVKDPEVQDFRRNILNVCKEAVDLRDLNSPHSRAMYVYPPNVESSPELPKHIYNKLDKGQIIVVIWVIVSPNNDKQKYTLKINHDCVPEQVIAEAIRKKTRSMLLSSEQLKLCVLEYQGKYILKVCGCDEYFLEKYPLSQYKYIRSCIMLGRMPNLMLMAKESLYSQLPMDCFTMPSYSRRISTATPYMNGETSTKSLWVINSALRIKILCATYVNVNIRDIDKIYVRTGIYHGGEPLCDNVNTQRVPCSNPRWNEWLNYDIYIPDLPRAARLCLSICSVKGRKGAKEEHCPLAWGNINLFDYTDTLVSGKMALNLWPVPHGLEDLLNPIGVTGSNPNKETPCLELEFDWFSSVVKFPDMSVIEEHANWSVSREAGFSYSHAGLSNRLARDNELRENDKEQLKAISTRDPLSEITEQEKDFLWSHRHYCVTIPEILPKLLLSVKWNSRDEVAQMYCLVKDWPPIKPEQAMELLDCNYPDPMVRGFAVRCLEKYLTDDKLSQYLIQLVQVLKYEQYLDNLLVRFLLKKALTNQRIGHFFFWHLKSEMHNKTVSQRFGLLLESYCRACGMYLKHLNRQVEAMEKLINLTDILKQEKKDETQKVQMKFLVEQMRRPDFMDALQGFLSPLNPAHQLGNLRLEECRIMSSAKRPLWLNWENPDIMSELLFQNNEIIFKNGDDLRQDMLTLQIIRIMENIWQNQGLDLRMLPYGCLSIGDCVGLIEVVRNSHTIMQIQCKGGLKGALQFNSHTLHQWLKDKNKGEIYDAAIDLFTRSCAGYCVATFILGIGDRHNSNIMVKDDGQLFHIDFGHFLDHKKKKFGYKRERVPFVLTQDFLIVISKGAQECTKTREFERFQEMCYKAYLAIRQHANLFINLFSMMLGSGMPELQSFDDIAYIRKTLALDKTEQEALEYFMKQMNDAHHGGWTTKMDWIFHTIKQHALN

PI3K p110 beta/p85 alpha = PI3K p110 beta/p85 alpha (Homo sapiens, UniProt P42338); assay: Inhibition of PI3KCbeta/PIK3R1 (unknown origin); format: protein-complex assay
Sequence of PI3K p110 beta/p85 alpha (P27986 whole entry, canonical isoform): as the sequence (P27986 whole entry) above
Sequence of PI3K p110 beta/p85 alpha (P42338 whole entry, canonical isoform): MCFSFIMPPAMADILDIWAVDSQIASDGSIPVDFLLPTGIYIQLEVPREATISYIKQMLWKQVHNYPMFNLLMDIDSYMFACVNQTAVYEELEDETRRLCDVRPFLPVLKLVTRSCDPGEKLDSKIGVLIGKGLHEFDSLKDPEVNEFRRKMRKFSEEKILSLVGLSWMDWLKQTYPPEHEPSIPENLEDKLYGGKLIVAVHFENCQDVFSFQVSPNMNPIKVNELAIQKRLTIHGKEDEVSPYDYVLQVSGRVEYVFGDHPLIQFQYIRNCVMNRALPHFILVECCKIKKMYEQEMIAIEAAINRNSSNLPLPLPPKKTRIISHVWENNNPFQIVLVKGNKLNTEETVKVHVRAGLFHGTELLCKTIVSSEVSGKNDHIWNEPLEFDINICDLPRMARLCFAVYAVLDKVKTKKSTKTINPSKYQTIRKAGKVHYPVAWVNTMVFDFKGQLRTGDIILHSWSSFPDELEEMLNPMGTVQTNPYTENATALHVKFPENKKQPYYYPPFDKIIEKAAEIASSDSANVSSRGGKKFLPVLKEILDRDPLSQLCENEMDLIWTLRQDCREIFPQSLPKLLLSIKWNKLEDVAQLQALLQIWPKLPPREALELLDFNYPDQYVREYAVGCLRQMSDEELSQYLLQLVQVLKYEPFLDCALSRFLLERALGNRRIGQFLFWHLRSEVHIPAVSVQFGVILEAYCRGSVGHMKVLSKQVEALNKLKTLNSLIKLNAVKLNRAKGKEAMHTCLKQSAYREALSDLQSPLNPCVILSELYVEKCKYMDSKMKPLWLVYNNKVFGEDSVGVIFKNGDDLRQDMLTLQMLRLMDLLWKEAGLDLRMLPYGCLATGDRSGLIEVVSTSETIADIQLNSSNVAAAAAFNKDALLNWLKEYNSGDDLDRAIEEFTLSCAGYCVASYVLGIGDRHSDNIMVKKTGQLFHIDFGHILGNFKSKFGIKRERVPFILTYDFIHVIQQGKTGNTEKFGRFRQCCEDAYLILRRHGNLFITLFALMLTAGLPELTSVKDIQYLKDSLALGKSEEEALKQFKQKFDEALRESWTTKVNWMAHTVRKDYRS

[16] = target: T1, Phosphatidylinositol 4,5-bisphosphate 3-kinase catalytic subunit delta isoform (Homo sapiens); assay: Inhibition of PI3Kdelta in human basophils assessed as reduction in IgE-induced degranulation by measuring decrease in CD63 expression level by flow cast assay
[17] = target: PI3-kinase p110-delta/p85-alpha (Homo sapiens, UniProt O00329); assay: Inhibition of PI3KCdelta/PIK3R1 (unknown origin); format: protein-complex assay
Sequence of PI3-kinase p110-delta/p85-alpha (P27986 whole entry, one chain of several): as the sequence (P27986 whole entry) above

Mus musculus [18] = assay: Anti-asthmatic activity in mouse model of ovalbumin-induced asthma assessed as decrease in methacholine-induced lung resistance at 90 mg/kg aerosolized daily by plethysmographic method; format: functional, organism-based
Mus musculus [19] = assay: Toxicity in mouse up to 90 mg/kg, ip or iv administered 3 to 5 times/week up to 4 weeks; format: organism-based; settings: in vivo, 672 h
Mus musculus [20] = assay: Anti-asthmatic activity in mouse model of ovalbumin-induced asthma assessed as decrease in methacholine-induced lung resistance at 10 mg/kg, ip daily by plethysmographic method; format: functional, organism-based
Mus musculus [21] = assay: Anti-asthmatic activity in mouse model of ovalbumin-induced asthma assessed as decrease in methacholine-induced lung resistance at 10 mg/kg aerosolized daily by plethysmographic method; format: functional, organism-based
Mus musculus [22] = assay: Anti-inflammatory activity in mouse model of ovalbumin-induced asthma assessed as decrease in total leukocytic infilterate in BAL at 10 mg/kg aerosolized daily; format: functional, organism-based

Structure (SMILES) | Activity [1] [%] | Activity [2] [%] | also measured
COc1cc(OC)c(C(=O)/C=C/c2cc(OC)c(OC)cc2OC)c(OC)c1 | 51 | 53 | 
COc1cccc(OC)c1C(=O)/C=C/c1ccc(C(F)(F)F)cc1 | 81 | 64 | 
COc1cc(OC)c(C2CCN(C)CC2)c(O)c1C(=O)/C=C/c1c(Cl)cccc1Cl | 24 | 6 | 
COc1ccc(/C=C/C(=O)c2cc(OC)c(OC)cc2OC)cc1O | 62 | 49 | 
CCC(=O)OCC(=O)[C@@]1(OC(=O)CC)[C@@H](C)C[C@H]2[C@@H]3CCC4=CC(=O)C=C[C@]4(C)[C@@]3(F)[C@@H](O)C[C@@]21C |  |  | Activity (Mus musculus [3]): Active
COc1ccccc1/C=C/C(=O)c1cc(OC)c(OC)cc1OC | 65 | 55 | 
COc1cc(OC)c(/C=C/C(=O)c2c(OC)cc(OC)c(C3CCN(C)CC3)c2O)c(OC)c1 |  |  | Activity (Mus musculus [4]): inactive; Activity (Mus musculus [5]): Active; Activity (Mus musculus [6]): Dose-dependent effect; inhibition [7]: Dose-dependent effect; Activity (Mus musculus [8]): inactive; Activity (Mus musculus [9]): inactive; Activity (Mus musculus [10]): Dose-dependent effect; Activity (Mus musculus [11]): Active; IC50 [12]: 10 µM; Activity (Mus musculus [13]): inactive; Activity (Mus musculus [14]): Dose-dependent effect; IC50 [15]: > 10 µM; IC50 (PI3K p110 beta/p85 alpha): > 10 µM; inhibition [16]: Dose-dependent effect; IC50 [17]: 7.2 µM; Activity (Mus musculus [18]): Active; Activity (Mus musculus [19]): Non-Toxic
COc1ccc(C(=O)/C=C/c2cc(OC)c(OC)c(OC)c2)c(O)c1 | 93 | 92 | 
O=C(O)c1cc(=O)c2c(OCC(O)COc3cccc4oc(C(=O)O)cc(=O)c34)cccc2o1 |  |  | Activity (Mus musculus [20]): inactive
COc1cccc(OC)c1/C=C/C(=O)c1c(OC)cc(OC)c(C2CCN(C)CC2)c1O | 41 | 4 | 
C[C@@H]1C[C@H]2[C@@H]3CCC4=CC(=O)C=C[C@]4(C)[C@@]3(F)[C@@H](O)C[C@]2(C)[C@@]1(O)C(=O)CO |  |  | Activity (Mus musculus [21]): Active; Activity (Mus musculus [22]): Active
COc1cccc(OC)c1/C=C/C(=O)c1c(OC)cccc1OC | 96 | 94 | 
COc1cc(OC)c(C(=O)/C=C/c2ccccc2OC)c(OC)c1 | 65 | 48 | 
COc1cccc(/C=C/C(=O)c2c(OC)cccc2OC)c1 | 82 | 100 | 
COc1cc(OC)c(OC)cc1/C=C/C(=O)c1cc(OC)c(OC)cc1OC | 70 | 66 | 

Further lines, with some results ahead:

Activity [1] [%] | Activity [2] [%] | Structure (SMILES) | also measured
86 | 76 | COc1ccc(C(=O)/C=C/c2c(OC)cc(OC)cc2OC)c(OC)c1 | 
95 | 91 | COc1cc(OC)c(/C=C/C(=O)c2ccc(OC)c(OC)c2)c(OC)c1 | 
68 | 67 | COc1cc(OC)c(/C=C/C(=O)c2c(OC)cc(OC)cc2OC)c(OC)c1 | 
75 | 63 | COc1cc(OC)c(/C=C/C(=O)c2c(OC)cc(N)cc2OC)c(OC)c1 | 
85 | 81 | COc1cc(O)c(C(=O)/C=C/c2c(OC)cccc2OC)c(OC)c1 | 
81 | 78 | COc1cc(OC)c(/C=C/C(=O)c2c(OC)cccc2OC)c(OC)c1 | 
91 | 95 | COc1ccc(C(=O)/C=C/c2c(OC)cc(OC)cc2OC)c(O)c1 | 
54 | 40 | COc1cc(OC)c(C(=O)/C=C/c2ccc(OC)c(O)c2)c(OC)c1 | 
